What is called IC50 is the concentration that gives 50% inhibition. Read a high IC50 as a need for much substance.

In the assay the test system is Plasmodium falciparum. Briefly: MMV: IC50 determined against P. falciparum Dd2-luc strain using a Malaria Sybr Green I Fluorescence assay. Starting conditions were 1% trophozoite synchronised parasites at 2% haematocrit. Fluorescence detection completed after 48hr incubation at 37 degrees C under 1% O2, 3% CO2 and balance N2. It counts as functional, organism-based. As to conditions: Dd2, 48 h.
The compound `COc1cc(-c2nc(-c3ccccc3)c(-c3ccccc3)[nH]2)cc(OC)c1O` showed an IC50 of 1540 nM.

Turning to `CC(O)(c1ccc(Cl)cc1)C(CN1CCCCC1)c1ccccc1` (centres undefined), 314 nM corresponded to half-maximal inhibition (IC50).

The compound `O=C(NC1CCN(Cc2ccccc2)CC1)c1cc2nc(-c3ccc(Cl)s3)cc(C(F)(F)F)n2n1` gave an IC50 of 5170 nM. This IC50 lies about 16-fold higher than the previous one.

Compound `CSc1ccccc1C(=O)Nc1nc(-c2ccccn2)cs1` showed an IC50 of 1800 nM.

`CCOC(=O)c1cnc2ccc(CC)cc2c1O` displayed a half-inhibitory concentration (IC50) of 647 nM.

`Cc1cc(Nc2ccc3ccccc3c2)n2ncnc2n1` gave a half-maximal inhibitory concentration (IC50) of 156 nM.

`Cc1ccc(Nc2nc(N)c3ccccc3n2)cc1Cl` registered an IC50 of 1100 nM.

The compound `Oc1ccc(Cl)cc1CNc1nc2ccccc2[nH]1` had an IC50 of 1000 nM.

On to `Cc1cc(Nc2ccc(OCc3ccccc3)cc2)nc2cc(O)ccc12`, for which the IC50 came out at 296 nM.

`CN1c2ccccc2N(C)C1c1ccc2c(c1)OCO2` showed an IC50 of 1150 nM.

Consider `CCCOCc1cc(CN2CCN(c3cccc(Cl)c3)CC2)c(O)c2ncccc12`, for which the IC50 stood at 961 nM.

For `CCOc1ccc(Nc2ccnc3cc(Cl)ccc23)cc1`, the IC50 amounted to 768 nM.

`O=C(NCc1ccco1)C1CCN(S(=O)(=O)c2ccc(Br)cc2)CC1` registered an IC50 of 901 nM.

With `COc1ccc2c(c1OC)C(=O)N1c3ccccc3N=C(c3ccc(C)cc3)CC21` (centres undefined), the concentration for half-maximal inhibition (IC50) amounted to 1690 nM.

Take `Cc1cc(Nc2ccc(C)c(Cl)c2)n2nc(C(F)(F)F)nc2n1`: the half-inhibitory concentration (IC50) amounted to 1240 nM.

Consider `O=C(NCC(c1ccsc1)N1CCCCCC1)c1ccc(C(F)(F)F)cc1` (centres undefined), for which the concentration for half-maximal inhibition (IC50) came to 467 nM.

`CCOc1cc(CNC(C)C(O)c2ccccc2)cc(Cl)c1OCC` (centres undefined) had an IC50 of 1910 nM. Compared with the last compound, the IC50 is about 4.1-fold higher.

For `O=C(NC1CCN(Cc2ccccc2)CC1)c1cc(-c2ccncc2)nc2ccc(Cl)cc12`, the IC50 is 1480 nM.

In turn, `O=C(CCc1ccccc1)c1ccccc1OCC(O)CN1CCCCC1` (centres undefined) gave an IC50 of 1090 nM.

`CCOc1c(Br)cc(C2C(C(=O)OC)=CN(C)C=C2C(=O)OC)cc1OC` registered an IC50 of 789 nM.

`COc1ccccc1C(=O)ON=C(N)Cc1cccc2ccccc12` gave an IC50 of 4020 nM.

`CCN(CC)CCNc1ccnc2cc(Cl)ccc12`: the midpoint of inhibition, the IC50, lay at 44 nM. This IC50 lies about 91-fold lower than the previous one.

`FC(F)(F)c1cccc(CNC2CCN(CCc3ccccc3)CC2)c1` yielded an IC50 of 490 nM.

In the case of `COc1ccccc1CNC(=O)CCn1c(=O)[nH]c2ccccc2c1=O`, inhibition was half-maximal at 518 nM (IC50).

As for `CCOc1ccccc1CNC(=O)C1c2ccccc2C(=O)N(CC(C)C)C1c1cccs1` (centres undefined), the IC50 was determined as 1220 nM.

On to `O=C(Nc1ccc(Cl)c(Cl)c1)Nc1ccc(Cl)c(Cl)c1`, for which the 50% inhibitory concentration (IC50) was determined as 3880 nM.

`CCCN(CCC)CC(O)COc1ccccc1C(=O)Nc1ccccc1` (centres undefined): the midpoint of inhibition, the IC50, lay at 209 nM.

Regarding `Clc1ccc2[nH]c3c(NCCCN4CCOCC4)ncnc3c2c1`, 617 nM corresponded to half-maximal inhibition (IC50).

For `O=C(NCc1ccco1)C1CCN(S(=O)(=O)c2ccc(Cl)cc2)CC1`, the IC50 came to 878 nM.

`CCN1CCN(Cc2ccc(NC(=O)c3cc4ccc5cccnc5c4[nH]3)cc2)CC1` registered an IC50 of 665 nM.

As to `COc1ccc2c(c1)C1(Nc3ccccc3-c3nc4ccccc4n31)C(=O)N2` (centres undefined), the midpoint of inhibition, the IC50, lay at 239 nM.

As for `O=C(Nc1nc(-c2ccccn2)cs1)c1ccccc1Br`, the IC50 is 1610 nM.

`Oc1c2c(nc3cc(-c4ccccc4)nn13)CCCC2` had an IC50 of 1560 nM.

`CN1CCN(c2nc(Nc3ccc(O)cc3)nc3ccccc23)CC1` gave an IC50 of 1410 nM.

The compound `Cc1ccc(Cl)cc1N1CCN(CCCNC(=O)C2CCN(c3nc4ccccc4[nH]3)CC2)CC1` returned an IC50 of 1300 nM.

The compound `COc1ccc(Nc2nc(N/N=C/c3ccc(O)cc3)nc(Nc3ccc([N+](=O)[O-])cc3)n2)cc1` yielded an IC50 of 1530 nM.

With `CCCCNCC(O)(c1ccc(Cl)cc1)c1ccc(Cl)cc1`, the IC50 came out at 420 nM. Compared with the last compound, the IC50 is about 3.6-fold lower.

For the compound `Cn1c(=O)n(C)c2cc(CNCCNc3ccnc4cc(Cl)ccc34)ccc21`, the IC50 is 197 nM.

As to `COc1ccc(CN2CCN(Cc3ccccc3)CC2)c(O)c1`, the midpoint of inhibition, the IC50, lay at 1140 nM. Against the preceding compound, the IC50 is about 5.8-fold higher.

`COc1ccc2nc(C)cc(Nc3ccc(Cl)cc3)c2c1` showed an IC50 of 1180 nM.

With `Cc1cc(NC(=O)C2c3ccccc3C(=O)N(CC(C)C)C2c2cccs2)no1` (centres undefined), the IC50 is 160 nM.

In the case of `OC(CNC1CCCC1)Cn1c2ccccc2c2ccccc21` (centres undefined), the IC50 amounted to 453 nM. This IC50 lies about 2.8-fold higher than the previous one.

In turn, `CCC1(C)CC(CCNCc2ccccc2O)(c2ccc(C)cc2)CCO1` (centres undefined) returned an IC50 of 141 nM.

As for `Cc1c(C)n(Cc2ccc(F)cc2)c2ccc(C(=O)NCc3ccco3)cc12`, half-maximal inhibition (IC50) required 82.7 nM. This IC50 is about 1.7-fold lower than that of the compound before.

`CCOC(=O)C1(Cc2ccccc2)CCN(Cc2cccc(OC)c2O)CC1` displayed an IC50 of 2200 nM.

Compound `COc1ccc2c(c1)OC(O)(C(F)(F)C(F)(F)F)CC2=O` (centres undefined) showed an IC50 of 370 nM.

`Cc1sc2ncnc(Sc3nc4ccccc4[nH]3)c2c1C` returned an IC50 of 844 nM.

The compound `CCOc1cc(Br)c(C(C)NC(=O)c2cccc(OC)c2)cc1OCC` (centres undefined) showed an IC50 of 1440 nM. This IC50 lies about 1.7-fold higher than the previous one.

Turning to `CCOc1cc(Cl)c(C(C)NC(=O)c2ccccc2)cc1OCC` (centres undefined), inhibition was half-maximal at 828 nM (IC50).

Consider `O=C(Nc1cccc(C2=NCCN2)c1)Nc1cccc(C2=NCCN2)c1` [IMIDOCARB], for which the IC50 came out at 332 nM.

Compound `Oc1ccccc1CN1CCN(C(c2ccccc2)c2ccccc2)CC1` returned an IC50 of 959 nM.

The compound `O=c1nc(C=Cc2ccc(Cl)cc2)oc2ccccc12` came in with an IC50 of 1190 nM.

In turn, `O=C(Nc1ccc(N2CCN(Cc3ccccc3)CC2)cc1)c1cccs1` displayed a half-maximal inhibitory concentration (IC50) of 742 nM. This IC50 is about 1.6-fold lower than that of the compound before.

For the compound `COc1ccc(Nc2cc(C)nc(NCc3ccccc3)n2)cc1`, half-maximal inhibition (IC50) required 311 nM.

`CC(C)(C)c1ccc(C2CC3=Nc4ccccc4N(C(=O)c4ccccc4Cl)C(c4ccc(F)cc4)C3=C(O)C2)cc1` (centres undefined) registered an IC50 of 1990 nM.

`COc1ccc(C2N(C)c3ccccc3N2C)cc1` showed an IC50 of 1100 nM.

Compound `CCN1CCN(c2cc(C)c3cc(NC(=O)c4ccc(OC)c(OC)c4)ccc3n2)CC1` returned an IC50 of 1850 nM.

`Cc1ccc(OCCCCCCNCCO)c(C)c1` displayed an IC50 of 2480 nM.

Turning to `COc1ccc(C2c3ccc4ccccc4c3Oc3ncn(CCCN(C)C)c(=N)c32)cc1` (centres undefined), the IC50 came to 443 nM.

The compound `Cc1ccc(F)cc1NC(=O)c1cc(Cl)ccc1Nc1ccccc1` came in with an IC50 of 558 nM.

Regarding `c1ccc(/C2=N/c3ccccc3/N=C(/c3ccccc3)c3ccccc32)cc1`, half-maximal inhibition (IC50) was put at 638 nM.

Regarding `CCOC(=O)c1ccc2nc(-c3ccccc3)cc(O)c2c1`, the IC50 worked out at 720 nM.

For the compound `COc1ccc2nc(C)cc(Nc3cccc(O)c3)c2c1`, half-maximal inhibition (IC50) required 941 nM.

For `CCOc1ccc(/C=C/c2nc(=O)c3ccccc3o2)cc1`, 740 nM corresponded to half-maximal inhibition (IC50). The IC50 values of the last two compounds are within 1.5-fold of each other.

For `CCCN(CCC)CCCNC(=O)c1cc2c(-c3ccc(OC)c(OC)c3)nn(C)c2s1`, the IC50 came out at 1160 nM.

`CCCCCCn1c(=N)n(CC(O)COc2cccc(C)c2)c2ccccc21` (centres undefined) came in with an IC50 of 1800 nM.

Regarding `O=C(c1ccccc1F)N(Cc1ccc(Cl)cc1)c1ccccn1`, half-maximal inhibition (IC50) was put at 1190 nM.

On to `Nc1ccc(-c2nc3cc(Cc4ccc5[nH]c(-c6ccc(N)cc6)nc5c4)ccc3[nH]2)cc1`, for which half-maximal inhibition (IC50) was put at 1820 nM.

`CCCCCCc1cc(O)c2c3c(c(=O)oc2c1)CCC(C)C3` (centres undefined): the IC50 turned out to be 568 nM. This IC50 is about 3.2-fold lower than that of the compound before.

Take `O=[N+]([O-])c1ccc(C=NNc2nc3ccccc3[nH]2)cc1`: inhibition was half-maximal at 242 nM (IC50).

The compound `Oc1ccccc1CNCC12CC3CC(CC(C3)C1)C2` displayed an IC50 of 283 nM.

Take `COc1ccc(C(=O)Nc2ccc3nc(N4CCCCC4)cc(C)c3c2)cc1OC`: the IC50 stood at 614 nM.

With `Cc1c(C)n(CC(O)CNC2CCCCC2C)c2ccccc12` (centres undefined), the IC50 was 484 nM.

In the case of `Cc1ccc2nc(C)cc(Nc3cccc(C(F)(F)F)c3)c2c1`, the IC50 was determined as 1390 nM.

The record behind these values is ChEMBL document CHEMBL3392922, “MMV box screening in the Dd2 P. falciparum strain”.
